Experimental findings from ChEMBL document CHEMBL3286359, “Synthesis and SAR of substituted pyrazolo[1,5-a]quinazolines as dual mGlu(2)/mGlu(3) NAMs” (Bioorg Med Chem Lett, 2014) are described below.

The source made the active and inactive calls. The rule behind the calls is not given here.

Common to all, as to format: functional, cell-based
Test [1] deals with Metabotropic glutamate receptor 3 (Rattus norvegicus) (UniProt P31422). The experiment in a line: Inhibition of rat mGlu3 receptor transfected in HEK293 cells coexpressing mouse Galpha15 assessed as decrease in glutamate-induced calcium signaling at 3 uM by fluorescence plate reader analysis in presence of glutamate at EC87 concentration.
Test [2] addresses Metabotropic glutamate receptor 2 (Rattus norvegicus) (UniProt P31421). The experiment in a line: Inhibition of rat mGlu2 receptor transfected in HEK293 cells coexpressing mouse Galpha15 assessed as decrease in glutamate-induced calcium signaling at 3 uM by fluorescence plate reader analysis in presence of glutamate at EC76 concentration.
Test [3] shares this target. As to the kind of experiment: Positive allosteric modulatory activity at rat mGlu2 receptor transfected in HEK293 cells co-expressing mouse Galpha15 assessed as potentiation of glutamate-dependent calcium signaling at 3 uM by fluorescence plate reader analysis in presence of glutamate at EC20 concentration.
Test [4] deals with Metabotropic glutamate receptor 3 (Rattus norvegicus) (UniProt P31422). As to the kind of experiment: Positive allosteric modulatory activity at rat mGlu3 receptor transfected in HEK293 cells co-expressing mouse Galpha15 assessed as potentiation of glutamate-dependent calcium signaling at 3 uM by fluorescence plate reader analysis in presence of glutamate at EC20 concentration.

In test [5] the target is Metabotropic glutamate receptor 2 (Rattus norvegicus, UniProt P31421). The experiment in a line: Inhibition of rat mGlu2 receptor transfected in HEK293 cells coexpressing mouse Galpha15 assessed as decrease in glutamate-induced calcium signaling by fluorescence plate reader analysis in presence of glutamate at EC76 concentration.
The target of test [6] is Metabotropic glutamate receptor 3 (Rattus norvegicus, UniProt P31422). As to the kind of experiment: Inhibition of rat mGlu3 receptor transfected in HEK293 cells coexpressing mouse Galpha15 assessed as decrease in glutamate-induced calcium signaling by fluorescence plate reader analysis in presence of glutamate at EC87 concentration.
Sequence of Metabotropic glutamate receptor 3 (P31422 whole entry): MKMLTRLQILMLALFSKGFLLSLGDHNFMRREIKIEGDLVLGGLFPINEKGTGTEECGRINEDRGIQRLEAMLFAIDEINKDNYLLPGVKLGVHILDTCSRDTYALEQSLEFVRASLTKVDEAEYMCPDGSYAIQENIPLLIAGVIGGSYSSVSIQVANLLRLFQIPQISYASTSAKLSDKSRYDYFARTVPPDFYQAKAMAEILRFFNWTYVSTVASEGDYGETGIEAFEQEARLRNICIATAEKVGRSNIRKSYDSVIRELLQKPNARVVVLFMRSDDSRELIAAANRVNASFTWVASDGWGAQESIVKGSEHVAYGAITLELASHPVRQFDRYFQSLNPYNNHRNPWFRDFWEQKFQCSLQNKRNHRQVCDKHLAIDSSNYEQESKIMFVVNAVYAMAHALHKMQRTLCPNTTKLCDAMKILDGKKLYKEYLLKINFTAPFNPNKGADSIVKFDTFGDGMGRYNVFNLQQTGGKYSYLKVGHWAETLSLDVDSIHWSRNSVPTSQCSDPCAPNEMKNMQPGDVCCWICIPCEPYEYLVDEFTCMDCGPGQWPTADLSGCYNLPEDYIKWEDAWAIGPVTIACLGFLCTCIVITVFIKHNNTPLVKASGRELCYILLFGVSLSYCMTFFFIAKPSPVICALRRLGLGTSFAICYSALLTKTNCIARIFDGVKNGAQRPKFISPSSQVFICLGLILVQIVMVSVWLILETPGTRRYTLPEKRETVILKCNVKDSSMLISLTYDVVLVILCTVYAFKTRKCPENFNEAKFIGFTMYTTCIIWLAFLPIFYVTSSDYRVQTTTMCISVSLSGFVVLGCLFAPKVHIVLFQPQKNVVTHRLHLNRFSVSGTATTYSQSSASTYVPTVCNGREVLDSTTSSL

Sequence of Metabotropic glutamate receptor 3 (Rattus norvegicus) (P31422 23-879 limits assumed): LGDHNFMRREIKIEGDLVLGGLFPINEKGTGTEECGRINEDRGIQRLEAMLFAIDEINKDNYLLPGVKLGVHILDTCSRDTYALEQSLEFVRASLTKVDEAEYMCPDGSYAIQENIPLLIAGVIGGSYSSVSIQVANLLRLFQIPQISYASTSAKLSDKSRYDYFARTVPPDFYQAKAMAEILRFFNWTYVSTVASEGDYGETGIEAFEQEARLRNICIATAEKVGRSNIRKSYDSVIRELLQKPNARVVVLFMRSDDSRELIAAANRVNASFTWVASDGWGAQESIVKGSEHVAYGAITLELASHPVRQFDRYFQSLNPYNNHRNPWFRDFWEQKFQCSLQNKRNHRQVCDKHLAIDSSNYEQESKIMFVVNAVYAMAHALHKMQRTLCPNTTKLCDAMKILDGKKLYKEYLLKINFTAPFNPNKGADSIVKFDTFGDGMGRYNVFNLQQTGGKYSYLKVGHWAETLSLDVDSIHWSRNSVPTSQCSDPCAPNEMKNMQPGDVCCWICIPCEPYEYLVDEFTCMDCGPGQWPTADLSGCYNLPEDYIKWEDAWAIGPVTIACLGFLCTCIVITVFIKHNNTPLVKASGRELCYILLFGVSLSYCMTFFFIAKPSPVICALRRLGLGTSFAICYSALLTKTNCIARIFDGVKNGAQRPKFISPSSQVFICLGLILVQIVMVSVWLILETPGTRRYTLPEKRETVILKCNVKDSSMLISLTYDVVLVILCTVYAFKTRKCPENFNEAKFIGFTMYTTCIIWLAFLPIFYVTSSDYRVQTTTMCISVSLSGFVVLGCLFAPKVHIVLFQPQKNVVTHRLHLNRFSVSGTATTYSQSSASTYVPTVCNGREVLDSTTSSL
Sequence of Metabotropic glutamate receptor 2 (Rattus norvegicus) (P31421 19-872 limits assumed): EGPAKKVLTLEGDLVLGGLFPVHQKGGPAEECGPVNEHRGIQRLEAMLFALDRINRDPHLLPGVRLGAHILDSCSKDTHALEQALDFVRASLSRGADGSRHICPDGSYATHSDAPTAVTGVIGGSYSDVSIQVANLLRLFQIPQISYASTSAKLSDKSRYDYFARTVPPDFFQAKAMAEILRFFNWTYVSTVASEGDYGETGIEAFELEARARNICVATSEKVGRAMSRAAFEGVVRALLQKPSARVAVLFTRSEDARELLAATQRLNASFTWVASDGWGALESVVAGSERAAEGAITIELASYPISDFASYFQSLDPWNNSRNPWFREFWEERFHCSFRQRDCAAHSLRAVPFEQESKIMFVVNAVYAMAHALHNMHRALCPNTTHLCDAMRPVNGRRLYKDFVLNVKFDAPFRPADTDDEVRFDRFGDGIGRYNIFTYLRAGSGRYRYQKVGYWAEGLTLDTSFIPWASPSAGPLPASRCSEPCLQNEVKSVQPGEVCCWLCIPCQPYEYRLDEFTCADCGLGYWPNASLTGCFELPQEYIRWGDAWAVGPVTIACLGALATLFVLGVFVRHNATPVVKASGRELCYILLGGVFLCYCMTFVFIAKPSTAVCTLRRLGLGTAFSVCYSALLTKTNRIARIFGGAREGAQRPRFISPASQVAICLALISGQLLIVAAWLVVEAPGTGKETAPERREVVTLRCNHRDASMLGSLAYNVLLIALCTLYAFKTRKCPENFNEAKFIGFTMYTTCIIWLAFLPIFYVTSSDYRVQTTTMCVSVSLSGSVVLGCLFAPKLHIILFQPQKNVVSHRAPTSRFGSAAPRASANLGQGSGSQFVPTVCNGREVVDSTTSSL
Sequence of Metabotropic glutamate receptor 2 (P31421 whole entry): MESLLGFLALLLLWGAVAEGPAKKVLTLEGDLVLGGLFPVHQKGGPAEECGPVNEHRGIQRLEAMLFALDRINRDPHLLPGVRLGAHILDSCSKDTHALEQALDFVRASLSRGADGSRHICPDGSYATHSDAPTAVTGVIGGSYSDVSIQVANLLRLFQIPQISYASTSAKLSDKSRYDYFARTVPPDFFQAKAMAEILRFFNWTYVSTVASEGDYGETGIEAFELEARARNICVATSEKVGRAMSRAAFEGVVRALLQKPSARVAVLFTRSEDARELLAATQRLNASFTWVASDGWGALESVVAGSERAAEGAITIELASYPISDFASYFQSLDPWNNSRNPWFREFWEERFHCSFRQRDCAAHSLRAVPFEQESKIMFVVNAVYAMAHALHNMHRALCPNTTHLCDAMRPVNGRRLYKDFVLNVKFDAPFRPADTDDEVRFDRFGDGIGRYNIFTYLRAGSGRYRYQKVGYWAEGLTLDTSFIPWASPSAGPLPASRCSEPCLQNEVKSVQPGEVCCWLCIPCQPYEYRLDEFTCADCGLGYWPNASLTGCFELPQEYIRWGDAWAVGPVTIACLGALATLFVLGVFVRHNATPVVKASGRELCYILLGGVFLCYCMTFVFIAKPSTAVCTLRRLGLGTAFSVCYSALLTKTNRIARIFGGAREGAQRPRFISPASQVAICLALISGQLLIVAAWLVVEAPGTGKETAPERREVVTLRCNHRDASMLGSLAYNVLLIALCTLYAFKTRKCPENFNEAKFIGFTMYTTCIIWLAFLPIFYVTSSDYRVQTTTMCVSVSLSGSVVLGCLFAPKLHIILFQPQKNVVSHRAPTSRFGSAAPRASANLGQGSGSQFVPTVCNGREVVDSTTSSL

Broadly, the inhibition is the percentage by which the read-out fell short of the control. Take `O=c1[nH]c2cc(-c3ccccc3)nn2c2cc(-c3cccnc3)ccc12`: the inhibition in test [1] came out at 8%; in test [2], 4%.
`Cc1ccc2c(=O)n(C)c3cc(-c4ccccc4)nn3c2c1`: the inhibition worked out at 59% in test [1] and 17% in test [2]. Further, the outcome in test [3] and in test [4] was inactive.
With `COc1ccc(-c2ccc3c(=O)n(C)c4cc(-c5cccc(C)c5)nn4c3c2)cc1`, the inhibition in test [1] worked out at 34%; in test [2], 0%. Moreover, the outcome in test [3] and in test [4] was inactive.
`Cn1c(=O)c2ccc(-c3ccc4nccnc4c3)cc2n2nc(-c3ccccc3)cc12`: the inhibition in test [1] was 16%; in test [2], 0%.
A word on the IC50: it is the concentration at which inhibition is half-maximal. Regarding `Cn1c(=O)c2ccc(-c3cccnc3)cc2n2nc(-c3cccc(F)c3)cc12`, the IC50 is 1560 nM in test [5] and 247 nM in test [6]. Moreover, the outcome in test [3] and in test [4] was inactive.
On to `COc1ccc(-c2ccc3c(=O)n(C)c4cc(-c5cccc(Br)c5)nn4c3c2)cc1`, for which the results for the inhibition in test [1] and in test [2] were 23% and 4%, respectively. The result in test [3] and in test [4] was inactive.
On to `O=c1c2ccc(-c3ccccc3)cc2n2nc(-c3ccccc3)cc2n1CCO`, for which the values for the inhibition in test [1] and in test [2] were 3% and 0%, respectively.
In the case of `Cn1c(=O)c2ccc(-c3cccnc3)cc2n2nc(-c3ccc(F)cc3)cc12`, the IC50 in test [5] worked out at 427 nM; in test [6], 67 nM. Besides, the result in test [3] and in test [4] was inactive.
For `Cn1c(=O)c2ccc(-c3ccccc3)cc2n2nc(-c3ccc(F)cc3)cc12`, the values for the inhibition in test [1] and in test [2] were 64% and 12%, respectively. Moreover, the outcome in test [3] and in test [4] was inactive.
For `Cn1c(=O)c2ccc(-c3cccc(S(N)(=O)=O)c3)cc2n2nc(-c3ccccc3)cc12`, the result in test [3] and in test [4] was inactive. Besides, the IC50 in test [6] is 884 nM.
As for `Cn1c(=O)c2ccc(-c3cnc4ccccc4c3)cc2n2nc(-c3ccccc3)cc12`, the inhibition in test [1] worked out at 33%; in test [2], 4%.
For the molecule `Cc1ccc2c(=O)n(C)c3cc(-c4cccc(F)c4)nn3c2c1`, the inhibition worked out at 38% in test [1] and 16% in test [2]. Besides, the outcome in test [3] and in test [4] was inactive.
`O=c1[nH]c2cc(-c3ccccc3)nn2c2cc(-c3ccccc3)ccc12`: the inhibition in test [1] came to 6%; in test [2], 2%.
For `Cn1c(=O)c2ccc(-c3ccc4cc[nH]c4c3)cc2n2nc(-c3ccccc3)cc12`, the figures for the inhibition in test [1] and in test [2] were 34% and 9%, respectively.
On to `COc1ccc(-c2ccc3c(=O)n(C)c4cc(-c5cccc(F)c5)nn4c3c2)cc1`, for which the inhibition in test [1] came out at 2%; in test [2], 6%. For the same molecule, the outcome in test [3] and in test [4] was inactive.
As for `COc1cccc(-c2cc3n(C)c(=O)c4ccc(-c5cccnc5)cc4n3n2)c1`, the IC50 came out at 3120 nM in test [5] and 1180 nM in test [6]. In addition, the outcome in test [3] and in test [4] was inactive.
Consider `Cc1cccc(-c2cc3n(C)c(=O)c4ccc(-c5ccccc5)cc4n3n2)c1`, for which the values for the inhibition in test [1] and in test [2] were 49% and 7%, respectively. Moreover, the outcome in test [3] and in test [4] was inactive.
Take `Cn1c(=O)c2ccc(-c3ccccc3)cc2n2nc(-c3cccc(Cl)c3)cc12`: the inhibition was 19% in test [1] and 7% in test [2]. Further, the outcome in test [3] and in test [4] was inactive.
Regarding `Cn1c(=O)c2ccc(-c3cccnc3)cc2n2nc(-c3ccccc3)cc12`, the IC50 in test [5] was found to be 852 nM; in test [6] it was 165 nM. Moreover, the outcome in test [3] and in test [4] was inactive.
Consider `Cn1c(=O)c2ccc(-c3cccc(S(N)(=O)=O)c3)cc2n2nc(-c3cccc(F)c3)cc12`, for which the IC50 in test [5] and in test [6] was over 10000 nM each time. In addition, the result in test [3] and in test [4] was inactive.
Regarding `Cn1c(=O)c2ccc(-c3ccccc3)cc2n2nc(-c3cccc(Br)c3)cc12`, the inhibition is 28% in test [1] and 8% in test [2]. Further, the result in test [3] and in test [4] was inactive.
With `COc1ccc(-c2ccc3c(=O)n(C)c4cc(-c5cccc(Cl)c5)nn4c3c2)cc1`, the figures for the inhibition in test [1] and in test [2] were 31% and 9%, respectively. Also, the result in test [3] and in test [4] was inactive.
Regarding `Cn1c(=O)c2ccc(-c3cccc(S(N)(=O)=O)c3)cc2n2nc(-c3ccc(F)cc3)cc12`, the IC50 in test [5] was 3950 nM; in test [6], 1990 nM. Also, the result in test [3] and in test [4] was inactive.
Consider `Cn1c(=O)c2ccc(-c3ccc4cn[nH]c4c3)cc2n2nc(-c3ccccc3)cc12`, for which the IC50 in test [5] and in test [6] was over 10000 nM throughout.
Turning to `Cn1c(=O)c2ccc(-c3ccccc3)cc2n2nc(-c3ccccc3)cc12`, the IC50 in test [5] and in test [6] was over 10000 nM in each case. For the same molecule, the outcome in test [3] and in test [4] was inactive.
Regarding `Cn1c(=O)c2ccc(-c3cccnc3)cc2n2nc(-c3cccc(Br)c3)cc12`, the IC50 in test [5] and in test [6] was over 10000 nM throughout. In addition, the result in test [3] and in test [4] was inactive.
Consider `Cc1cccc(-c2cc3n(C)c(=O)c4ccc(-c5cccnc5)cc4n3n2)c1`, for which the figures for the concentration for half-maximal inhibition (IC50) in test [5] and in test [6] were 1790 nM and 530 nM, respectively. The result in test [3] and in test [4] was inactive.
Regarding `Cn1c(=O)c2ccc(-c3ccncc3)cc2n2nc(-c3ccccc3)cc12`, the IC50 worked out at 1770 nM in test [5] and 509 nM in test [6].
As for `COc1cccc(-c2cc3n(C)c(=O)c4ccc(-c5cccc(S(N)(=O)=O)c5)cc4n3n2)c1`, the IC50 worked out at 1390 nM in test [5] and 696 nM in test [6]. Also, the outcome in test [3] and in test [4] was inactive.
`COc1ccc(-c2ccc3c(=O)n(C)c4cc(-c5ccccc5)nn4c3c2)cc1`: the inhibition in test [1] amounted to 0%. For the same molecule, the result in test [3] and in test [4] was inactive.
As to `Cn1c(=O)c2ccc(-c3ccc4ccncc4c3)cc2n2nc(-c3ccccc3)cc12`, the IC50 was over 10000 nM in test [5] and 4510 nM in test [6].
For the molecule `CC(=O)n1c(=O)c2ccc(-c3ccccc3)cc2n2nc(-c3ccccc3)cc12`, the inhibition in test [1] was determined as 8%; in test [2], 3%.
Take `Cn1c(=O)c2ccc(-c3ccccc3)cc2n2nc(-c3cccc(F)c3)cc12`: the inhibition in test [1] was determined as 39%; in test [2] it was 2%. For the same molecule, the result in test [3] and in test [4] was inactive.
Take `Cc1ccc2c(=O)n(C)c3cc(-c4ccc(F)cc4)nn3c2c1`: the IC50 in test [5] and in test [6] was over 10000 nM throughout. The result in test [3] and in test [4] was inactive.
As to `COc1cccc(-c2cc3n(C)c(=O)c4ccc(-c5ccccc5)cc4n3n2)c1`, the IC50 in test [5] and in test [6] was over 10000 nM each time. In addition, the outcome in test [3] and in test [4] was inactive.
For `CC(=O)n1c(=O)c2ccc(-c3cccnc3)cc2n2nc(-c3ccccc3)cc12`, the IC50 in test [5] and in test [6] was over 10000 nM throughout.
Regarding `Cn1c(=O)c2ccc(-c3cccnc3)cc2n2nc(-c3cccc(Cl)c3)cc12`, the values for the IC50 in test [5] and in test [6] were 564 nM and 293 nM, respectively. Moreover, the result in test [3] and in test [4] was inactive.
For the molecule `O=c1c2ccc(-c3cccnc3)cc2n2nc(-c3ccccc3)cc2n1CCO`, the IC50 in test [5] was found to be 4650 nM; in test [6], 3150 nM.
With `COc1ccc(-c2ccc3c(=O)n(C)c4cc(-c5ccc(F)cc5)nn4c3c2)cc1`, the IC50 in test [5] and in test [6] was over 10000 nM in each case. In addition, the result in test [3] and in test [4] was inactive.
For `COc1ccc(-c2ccc3c(=O)n(C)c4cc(-c5cccc(OC)c5)nn4c3c2)cc1`, the inhibition in test [1] worked out at 48%; in test [2] it was 6%. In addition, the outcome in test [3] and in test [4] was inactive.
As for `COc1cccc(-c2cc3n(C)c(=O)c4ccc(C)cc4n3n2)c1`, the IC50 in test [5] and in test [6] was over 10000 nM in each case. The result in test [3] and in test [4] was inactive.
